Measurements: US20260263454A1, “USES OF A CHECKPOINT KINASE 1 (CHK1) INHIBITOR” (Boundless Bio, Inc., priority 2023, published 2026)

Key:
[1] = test system: ecDNA+ CDK4 amplified SJSA-1 CDX tumor model; assay: Anti-tumor activity in ecDNA+ CDK4 amplified osteosarcoma SJSA-1 CDX model; type: in vivo, Female Hsd:Athymic Nude-Foxnlnu mice; conditions: vs vehicle
Description: Tumor volume (mm^3) data are shown as mean±SEM for each treatment group. […] PO: orally, QD: once every day, Q2D: once every other day.

[2] = test system: ecDNA+ FGFR2 amplified SNU-16 CDX tumor model; assay: Durability of anti-tumor response in SNU-16 CDX model, subsequent study; type: in vivo, Female BALB/c nude mice; conditions: single agents vs vehicle: Compound 1 50 mg/kg PO Q2D, infigratinib 15 mg/kg PO QD
Description: (§1) Tumor volume (mm^3) data are shown as mean z SEM for each treatment group. […] PO: orally, mpk: mg/kg, QD: once per day, Q2D: once every other day.

[3] = test system: ecDNA+ FGFR2 amplified SNU-16 CDX tumor model; assay: Anti-tumor and PD activity in ecDNA+ FGFR2 amplified SNU-16 CDX model, first study; type: in vivo, female SCID beige mice
Description: as §1

SMILES	mean % ΔTGI ([1]; single agent 20 mg/kg PO QD, Study 2 (FIG. 3B))	mean % ΔTGI ([1]; single agent 50 mg/kg PO QD, Study 1 (FIG. 3A))	mean % ΔTGI [2]	mean % ΔTGI ([3]; Day 12 vs vehicle, single agents: Compound 1 100 mg/kg PO Q2D, infigratinib 15 mg/kg PO QD)	antitumor activity (in words) ([3]; infigratinib 15 mg/kg PO QD alone or with Compound 1 PO Q2D)	tumor FGFR2 gene copy number (qPCR) ([3]; tumors treated for 12 days, infigratinib 15 mg/kg PO QD alone or with Compound 1 25, 50, 100 mg/kg PO Q2D)
CC(=O)c1c(C)c2cnc(Nc3ccc(N4CCNCC4)cn3)nc2n(C2CCCC2)c1=O [palbociclib]	16.9%	78.3%	–	–	–	–
CCN1CCN(c2ccc(Nc3cc(N(C)C(=O)Nc4c(Cl)c(OC)cc(OC)c4Cl)ncn3)cc2)CC1 [infigratinib]	–	–	65.4%	97.6%	tumors resumed growth	concomitant increase in FGFR2 gene copy number
